Experimental data: patent publication US20240208961A1, “EIF4E INHIBITORS AND USES THEREOF” (PIC Therapeutics, Inc., priority 2022, published 2024)

Key:
ZR-75-1 [1] = assay: Cell viability assay, adherent cell line, 5 day Alamar Blue (Example 8): ZR-75-1; format: cell-based; settings: Homo sapiens, 120 h, ZR-75-1, Breast Cancer Cell Viability
Procedure: (§1) Cell viability assays were performed on certain compounds of the disclosure, according to the following procedure.
(§2) Cell line specific media conditions used:
(§3) The procedure for adherent cell line compound screening was as follows:
(§4) • Cells were seeded in 96-well cell culture treated tissue culture plates: ZR-75-1, NIHOVCAR3, T47D, and LOVO cells 4000 cells/well; and HPAFII 3000 cell/well
(§5) Day 3: Compound Dilution and Dosing
(§6) • 5-fold serial dilution (8 point) of each compound in DMSO 0-25 mM in compound storage plates was prepared (stored at −80° C. if not to be used immediately). • Cells were rinsed with 1% FBS Media (appropriate to cell line as described above) and replaced with 87.5 μL media prior to dosing. HPAFII was screened in normal 10% FBS Media. • DMSO compound dilution series was diluted in 1% FBS media (appropriate to cell line as described above)—2 μL in 248 μL to give an 8× final concentration. • Cells were dosed 12.5 μL/well in triplicate to give final dose curved on cells 0-25 μM. • Media blank 100 μL/well×8 was set up. • All plates were incubated at 37° C.
(§7) Day 8: 5 Day Viability Assay
(§8) • Alamar Blue viability reagent was added (10 μL per well) and incubated for 3 hours at 37° C. prior to fluorescence detection (Ex560 nm/Em590 nm) on a Varioskan Lux multimode plate reader.
(§9) Results from cell viability assays are summarized in Table 23, wherein A represents IC50≤1 μM; B represents 1 μM<IC50≤8 μM; and C represents IC50>8 μM. Blank cells indicate that the compound was not tested in a particular assay.

MM.1S = assay: Cell viability assay, suspension cell line, 5 day Alamar Blue (Example 8): MM.1S; format: cell-based; settings: Homo sapiens, MM1.S, 120 h, Multiple Myeloma (Steroid Sensitive) Cancer Cell
Procedure: as §1, §2
(§10) The procedure for suspension cell line compound screening was as follows:
(§11) Day 1: Cell Seeding and Compound Dosing
as §6, with “• Cells were seeded 2×10^5 in 96-well cell culture treated tissue culture plates: 87.5 μL/well; MM.1 S, MM,1R, NCIH510A. • 5-fold” for “• 5-fold”, “to dosing. • DMSO” for “to dosing. HPAFII was screened in normal 10% FBS Media. • DMSO”
(§12) Day 6: 5 Day Viability Assay
as §8, §9

T47D = assay: Cell viability assay, adherent cell line, 5 day Alamar Blue (Example 8): T47D; format: cell-based; settings: Homo sapiens, 120 h, Breast Cancer Cell Viability
Procedure: as §1, §2, §3, §4, §5, §6, §7, §8, §9

NCIH510A = assay: Cell viability assay, suspension cell line, 5 day Alamar Blue (Example 8): NCIH510A; format: cell-based; settings: Homo sapiens, NCI-H510A, 120 h, Small Cell Lung Cancer Cell Line
Procedure: as §1, §2, §10, §11
as §6, with “• Cells were seeded 2×10^5 in 96-well cell culture treated tissue culture plates: 87.5 μL/well; MM.1 S, MM,1R, NCIH510A. • 5-fold” for “• 5-fold”, “to dosing. • DMSO” for “to dosing. HPAFII was screened in normal 10% FBS Media. • DMSO”
as §12, §8, §9

LoVo = assay: Cell viability assay, adherent cell line, 5 day Alamar Blue (Example 8): LoVo; format: cell-based; settings: Homo sapiens, 120 h, Colorectal Cancer Cell Viability
Procedure: as §1, §2, §3, §4, §5, §6, §7, §8, §9

Human eIF4E (aa 28-217) = target: T1, Human eIF4E (aa 28-217) (Homo sapiens, UniProt P06730); assay: 4G-eIF4E protein-based assay (TR-FRET, biotin labeled 4G2 peptide); format: binding
T1 construct: Human eIF4E (aa 28-217) with a C-terminal His-tag; made in house
Procedure: Human eIF4E ([…]) with a C-terminal His-tag was expressed in E. coli in inclusion bodies. The protein was solubilized with 8 M urea and purified under denaturing conditions using nickel-charged HisTrap HP columns (GE Healthcare). The purified protein was then refolded by diluting in 20 mM Hepes pH 7.0, 0.5 M NaCl, 1 mM DTT, […], 0.5 M arginine plus 6 M urea, and then dialyzing overnight into the same buffer without the urea. The protein was further dialyzed into 20 mM Hepes, pH 6.5, 50 mM NaCl, 1 mM EDTA, 1 mM DTT, and concentrated using Hitrap SP sepharose FF columns (GE Healthcare). The concentrated protein was dialyzed into 20 mM Hepes, pH 7.0, 0.5M NaCl, 5 mM DTT and […], and stored at -80° C. until use. Test compounds (3.43 mM stock in DMSO) were diluted 2-fold in series in DMSO (10 concentration points). Compound solutions (1.2 μL/well) were added into black 384-well polypropylene microplates (Matrix, Thermal Scientific). […] The samples were incubated at room temperature (20-23° C.) for 4 hours. Biotin labeled 4G2 peptide ([…])-NH2, 1.75 μM stock in DMSO) was diluted to 0.13 μM in Assay Buffer (without DTT) and 5 μL/well was added. The samples were incubated at room temperature for 20 min. Five microliters per well of 15 nM Eu-streptavidin (Eu-SA, Perkin Elmer) and 96 nM Allophycocyanin (APC)-anti His antibody (Columbia Biosciences) in Assay Buffer (without DTT) were then added and the samples were incubated at room temperature for 20 min. Assay signals were monitored by reading excitation at 340 nm and emission fluorescence at 615 nm and 665 nm on an Envision reader (Perkin Elmer). Normalized TR-FRET (time-resolved fluorescence resonance energy transfer) assay signal (Rn) was calculated by the formula: […] C=(Ac-Ba)/(Dc-Bd) • Where Ac is the fluorescence intensity of 1.5 nM Eu-SA in the assay buffer at 665 nm. IC50 values were calculated using xLFit program (IDBS).

HPAFII = assay: Cell viability assay, adherent cell line, 5 day Alamar Blue (Example 8): HPAFII; format: cell-based; settings: Homo sapiens, HPAF-II, 120 h, Pancreatic Cancer Cell
Procedure: as §1, §2, §3, §4, §5, §6, §7, §8, §9

MM.1R = assay: Cell viability assay, suspension cell line, 5 day Alamar Blue (Example 8): MM.1R; format: cell-based; settings: 120 h, Multiple Myeloma (Steroid Resistant) Cancer Cell
Procedure: as §1, §2, §10, §11
as §6, with “• Cells were seeded 2×10^5 in 96-well cell culture treated tissue culture plates: 87.5 μL/well; MM.1 S, MM,1R, NCIH510A. • 5-fold” for “• 5-fold”, “to dosing. • DMSO” for “to dosing. HPAFII was screened in normal 10% FBS Media. • DMSO”
as §12, §8, §9

NIHOVCAR3 = assay: Cell viability assay, adherent cell line, 5 day Alamar Blue (Example 8): NIHOVCAR3; format: cell-based; settings: Homo sapiens, OVCAR-3, 120 h, OVCAR3, Ovarian Cancer Cell
Procedure: as §1, §2, §3, §4, §5, §6, §7, §8, §9

ZR-75-1 [2] = assay: ZR-75-1 compound screening cell viability, Alamar Blue (Example 6); format: cell-based; settings: Homo sapiens, 96 h, ZR-75-1 cells, Media 1% FBS, read-out: ZR-75-1 Cell Viability, 4 Days: IC50
ZR-75-1 tumor = assay: ZR-75-1 subQ CDX model; format: in vivo; settings: female BALB/c nude mice, 10 mg/kg, PO, QD, FIG. 14
Procedure: Female BALB/c nude mice were inoculated with estrogen tablets (0.36 mg/pellet, 60 days to release) 48 hours before cell inoculation. The xenograft model was established by implantation of […] of ZR-75-1 tumor cell suspension (5×10^6 cells/mouse, with 50% Matrigel) subcutaneously into the right subaxillary of female BALB/c nude mice aged 6-8 weeks. When the average tumor volume reached 153.10 mm^3, the tumor-bearing mice were randomized into treatment groups. The groups were treated as follows: Group 1: vehicle, PO, QW; Group 2: Tamoxifen 10 mg/kg, PO, QD; Group 3: Compound I-11 50 mg/kg, PO, QW.
Cell culture: The ZR-75-1 (breast, ductal carcinoma) cell was purchased from (ATCC® CRL-1500™). The base medium for this cell line ATCC-formulated RPMI-1640 Medium. To make the complete growth medium, the base medium was supplemented with 10% heat inactivated FBS and 1% PS, maintained at 37° C. in an atmosphere containing 5% CO2 in air. The tumor cells were routinely subcultured at a ratio of 1:1.5 to 1:3 every 3-6 days. Cell concentration at harvest time was 5.39×10^7 cells/mL and cell viability was 94.3% before inoculation.
Tumor inoculation: BALB/c nude mice were used in this study. Each mouse was inoculated with estrogen tablets 48 hours before cell inoculation (0.3 mg/pellet, 60 days to release). […]

MM.1R cells = assay: 5 day viability assay in MM.1R cells, I-11 and dexamethasone (Example 7); format: cell-based; settings: 120 h; MM.1R cells (steroid resistant), 5 days, Alamar Blue; read-out: IC50 (μM), Viability Assessment (5 Days) in MM.1R Cells
Procedure: (§13) Compound I-11 was studied in the context of dexamethasone combinations, which is used clinically in early Multiple Myeloma prior to the emergence of steroid resistance and is a common backbone therapy. The MM.1S cell line is a steroid sensitive line, and the MM.1R line is the corresponding cell line which has been driven to steroid resistance. The procedure for these studies was as follows:
as §11
(§14) • Cells were seeded 2×10^5 in 96-well cell culture treated tissue culture plates: 87.5 μL/well; MM.1 S and MM.1R • A 5-fold serial dilution of each compound in DMSO (0-25 mM) was prepared in compound storage plates (stored at −80° C. if not to be used immediately). An 8-point curve was used for compound I-11, and a 6-point curve was used for dexamethasone (0-25 mM). • Cells were rinsed with 1% FBS Media and replaced with 87.5 μL media prior to dosing. • DMSO compound dilution series was diluted in 1% FBS media—2 μL compound in 123 μL media to give a 16× final concentration. Dosing across the plate columns 1-12 (compound I-11 0-400 μM), 6.25 μL 16× in media/well. Dosing down plate rows (columns 1-6 dexamethasone 0-400 μM), 6.25 μL 16× compound in media per well. • Cells were dosed with 12.5 μL for both compounds, with 2 replicates of dosing matrix per 96-well plate. Final volume cells and compound was 100 μL/well. • Media blank 100 μL/well×8 was set up. • All plates were incubated at 37° C.
as §12, §8

MM.1S cells = assay: 5 day viability assay in MM.1S cells, I-11 and dexamethasone (Example 7); format: cell-based; settings: Homo sapiens, MM1.S, 120 h; MM.1S cells (steroid sensitive), 5 days, Alamar Blue; read-out: IC50 (μM), Viability Assessment (5 Days) in MM.1S Cells
Procedure: as §13, §11, §14, §12, §8

T1 sequence (P06730 28-217): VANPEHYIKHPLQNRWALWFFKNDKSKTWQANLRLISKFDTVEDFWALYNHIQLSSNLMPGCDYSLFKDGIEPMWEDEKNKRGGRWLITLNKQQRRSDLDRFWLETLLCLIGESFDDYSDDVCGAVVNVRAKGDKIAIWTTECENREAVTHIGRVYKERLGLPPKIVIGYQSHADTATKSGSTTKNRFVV

IC50 (MM.1S) [nM] | IC50 (T47D) [nM] | IC50 (LoVo) [nM] | IC50 (Human eIF4E (aa 28-217)) [nM] | IC50 (MM.1R) [nM] | IC50 (MM.1R cells) [µM] | IC50 (MM.1S cells) [µM] | Compound | IC50 (ZR-75-1 [1]) [nM] | IC50 (NCIH510A) [nM] | IC50 (HPAFII) [nM] | IC50 (NIHOVCAR3) [nM] | IC50 (ZR-75-1 [2]) [nM] | tumor size growth (ZR-75-1 tumor)
1000 to 8000 | 1000 to 8000 | 1000 to 8000 | 500 to 1000 | 1000 to 8000 |  |  | Cc1ccc(-c2cnc(Nc3nc(C4CCC(F)(F)CC4)c(CC(C)C)s3)c(C(=O)O)c2)s1 [Compound I-30] | 1000 to 8000 | 1000 to 8000 | > 8000 | 1000 to 8000 |  | 
 |  |  |  |  | 30.9 | 0.0133 | C[C@@H]1C[C@H]2[C@@H]3CCC4=CC(=O)C=C[C@]4(C)[C@@]3(F)[C@@H](O)C[C@]2(C)[C@@]1(O)C(=O)CO [dexamethasone, reference compound] |  |  |  |  |  | 

Continued, molecule first:

Compound | IC50 (MM.1S) [nM] | IC50 (T47D) [nM] | IC50 (LoVo) [nM] | IC50 (Human eIF4E (aa 28-217)) [nM] | IC50 (MM.1R) [nM] | IC50 (MM.1R cells) [µM] | IC50 (MM.1S cells) [µM] | IC50 (ZR-75-1 [1]) [nM] | IC50 (NCIH510A) [nM] | IC50 (HPAFII) [nM] | IC50 (NIHOVCAR3) [nM] | IC50 (ZR-75-1 [2]) [nM] | tumor size growth (ZR-75-1 tumor)
CC(C)Cc1sc(Nc2ncc(-c3cccs3)cc2C(=O)O)nc1C1=CCC(F)(F)CC1 [Compound I-4] | ≤ 1000 | ≤ 1000 | ≤ 1000 | 500 to 1000 | 1000 to 8000 |  |  | ≤ 1000 | ≤ 1000 | ≤ 1000 | ≤ 1000 | < 1000 | 
C=C(C)c1nc(Nc2ncc(-c3cccs3)cc2C(=O)O)sc1CC(C)C [Compound I-13] | 1000 to 8000 | 1000 to 8000 | 1000 to 8000 | 500 to 1000 | 1000 to 8000 |  |  | 1000 to 8000 | 1000 to 8000 | 1000 to 8000 | 1000 to 8000 | 1000 to 8000 | 
Cc1ccc(-c2cnc(Nc3nc(C(C)(C)C)c(CC(C)C)s3)c(C(=O)O)c2)s1 [Compound I-24] | > 8000 | 1000 to 8000 | 1000 to 8000 | ≤ 500 | > 8000 |  |  | 1000 to 8000 | 1000 to 8000 | > 8000 | 1000 to 8000 |  | 
CC(C)Cc1sc(Nc2ncc(-c3cccs3)cc2C(=O)O)nc1C1CCC1 [Compound I-28] | ≤ 1000 | ≤ 1000 | ≤ 1000 | 500 to 1000 | ≤ 1000 |  |  | ≤ 1000 | ≤ 1000 | ≤ 1000 | ≤ 1000 |  | 
CC/C(=C(\c1ccccc1)c1ccc(OCCN(C)C)cc1)c1ccccc1 [Tamoxifen, reference compound] |  |  |  |  |  |  |  |  |  |  |  |  | reduced tumor size growth
